Laboratory results as given in ChEMBL document CHEMBL5465560, “Selectivity Literature for EUbOPEN Chemogenomic Library” (2024).
Each block holds one compound with its values, some of them ahead of it.

How the values were obtained:
[1] = biological target: Serine/threonine-protein kinase PAK 6 (Homo sapiens) (UniProt Q9NQU5); assay: Selectivity interaction (Kinase panel (Z-LYTE Assay)) EUB0001632a PAK6; conditions: at 10 µM
[2] = biological target: STE20/SPS1-related proline-alanine-rich protein kinase (Homo sapiens) (UniProt Q9UEW8); assay: Selectivity interaction (KinomeScan (DiscoverX)) EUB0000666a STK39; conditions: at 10 µM
[3] = biological target: Myosin light chain kinase, smooth muscle (Homo sapiens, UniProt Q15746); assay: Selectivity interaction (KinomeScan (DiscoverX)) EUB0000666a MYLK; conditions: at 10 µM
[4] = biological target: T1, NUAK family SNF1-like kinase 2 (Homo sapiens) (UniProt Q9H093); assay: Selectivity interaction (KinomeScan (DiscoverX)) EUB0000607a NUAK2; conditions: at 10 µM
T1 sequence (whole entry): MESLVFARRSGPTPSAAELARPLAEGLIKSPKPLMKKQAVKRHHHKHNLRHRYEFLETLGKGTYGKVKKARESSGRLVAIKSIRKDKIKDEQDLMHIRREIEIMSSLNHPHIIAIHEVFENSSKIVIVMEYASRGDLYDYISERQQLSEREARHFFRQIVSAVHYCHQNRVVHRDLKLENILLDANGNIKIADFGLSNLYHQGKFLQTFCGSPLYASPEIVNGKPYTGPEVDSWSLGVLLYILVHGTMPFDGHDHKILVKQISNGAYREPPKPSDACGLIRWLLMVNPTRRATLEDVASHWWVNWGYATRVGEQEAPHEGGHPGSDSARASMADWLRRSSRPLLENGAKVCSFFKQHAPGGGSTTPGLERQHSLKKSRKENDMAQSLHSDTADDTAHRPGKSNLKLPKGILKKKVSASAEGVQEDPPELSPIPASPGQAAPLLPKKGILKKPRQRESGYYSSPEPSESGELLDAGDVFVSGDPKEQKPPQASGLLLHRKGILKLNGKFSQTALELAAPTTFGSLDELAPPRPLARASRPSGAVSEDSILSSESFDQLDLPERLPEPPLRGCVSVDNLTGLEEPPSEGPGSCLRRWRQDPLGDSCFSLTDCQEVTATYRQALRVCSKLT

[5] = biological target: Serine/threonine-protein kinase SMG1 (Homo sapiens) (UniProt Q96Q15); assay: Selectivity interaction (ActivX KiNativ screen (kinase selectivity in THP-1 cell lysates)) EUB0000639a SMG1; format: subcellular; conditions: lysate, at 0.04 µM
[6] = biological target: Ribosomal protein S6 kinase alpha-1 (Homo sapiens, UniProt Q15418); assay: Selectivity interaction (ActivX KiNativ screen (kinase selectivity in THP-1 cell lysates)) EUB0000639a RPS6KA1; format: subcellular; conditions: lysate, at 0.2 µM
[7] = biological target: T2, Serine/threonine-protein kinase MAK (Homo sapiens) (UniProt P20794); assay: Selectivity interaction (KinomeScan (DiscoverX)) EUB0000595a MAK; conditions: at 10 µM
T2 sequence (whole entry): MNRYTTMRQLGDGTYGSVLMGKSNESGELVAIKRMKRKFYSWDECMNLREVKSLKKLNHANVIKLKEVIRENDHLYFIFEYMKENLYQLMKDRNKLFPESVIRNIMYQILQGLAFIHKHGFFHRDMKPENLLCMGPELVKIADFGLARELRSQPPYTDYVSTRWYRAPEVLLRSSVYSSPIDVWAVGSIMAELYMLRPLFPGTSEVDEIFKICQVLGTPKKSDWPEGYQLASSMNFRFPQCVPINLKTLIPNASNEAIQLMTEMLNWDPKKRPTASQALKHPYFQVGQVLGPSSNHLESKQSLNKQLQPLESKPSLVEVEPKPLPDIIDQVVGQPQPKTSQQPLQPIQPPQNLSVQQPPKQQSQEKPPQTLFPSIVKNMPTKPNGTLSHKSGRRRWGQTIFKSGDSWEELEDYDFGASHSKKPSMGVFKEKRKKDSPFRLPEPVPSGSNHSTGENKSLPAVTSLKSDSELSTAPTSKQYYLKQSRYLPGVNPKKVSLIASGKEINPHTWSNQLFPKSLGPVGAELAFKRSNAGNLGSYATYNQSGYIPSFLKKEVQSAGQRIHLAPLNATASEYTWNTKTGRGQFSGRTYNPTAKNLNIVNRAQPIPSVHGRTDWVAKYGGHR

[8] = biological target: Serine/threonine-protein kinase MRCK beta (Homo sapiens) (UniProt Q9Y5S2); assay: Selectivity interaction (KinomeScan (DiscoverX)) EUB0000092b CDC42BPB; conditions: at 10 µM
[9] = biological target: Serine/threonine-protein kinase 32C (Homo sapiens) (UniProt Q86UX6); assay: Selectivity interaction (KinomeScan (DiscoverX)) EUB0000618a STK32C; conditions: at 10 µM
Activated CDC42 kinase 1 = Activated CDC42 kinase 1 (Homo sapiens, UniProt Q07912); assay: Selectivity interaction (ActivX KiNativ screen (ex vivo kinase selectivity in human PBMCs)) EUB0001619a TNK2; format: cell-based; conditions: PBMC, at 1 µM
[10] = biological target: Serine/threonine-protein kinase WNK1 (Homo sapiens) (UniProt Q9H4A3); assay: Selectivity interaction (ActivX KiNativ screen (ex vivo kinase selectivity in human PBMCs)) EUB0001619a WNK1; format: cell-based; conditions: PBMC, at 1 µM
[11] = biological target: T3, Serine/threonine-protein kinase TAO3 (Homo sapiens) (UniProt Q9H2K8); assay: Selectivity interaction (ActivX KiNativ screen (ex vivo kinase selectivity in human PBMCs)) EUB0001619a TAOK3; format: cell-based; conditions: PBMC, at 1 µM
T3 sequence (whole entry): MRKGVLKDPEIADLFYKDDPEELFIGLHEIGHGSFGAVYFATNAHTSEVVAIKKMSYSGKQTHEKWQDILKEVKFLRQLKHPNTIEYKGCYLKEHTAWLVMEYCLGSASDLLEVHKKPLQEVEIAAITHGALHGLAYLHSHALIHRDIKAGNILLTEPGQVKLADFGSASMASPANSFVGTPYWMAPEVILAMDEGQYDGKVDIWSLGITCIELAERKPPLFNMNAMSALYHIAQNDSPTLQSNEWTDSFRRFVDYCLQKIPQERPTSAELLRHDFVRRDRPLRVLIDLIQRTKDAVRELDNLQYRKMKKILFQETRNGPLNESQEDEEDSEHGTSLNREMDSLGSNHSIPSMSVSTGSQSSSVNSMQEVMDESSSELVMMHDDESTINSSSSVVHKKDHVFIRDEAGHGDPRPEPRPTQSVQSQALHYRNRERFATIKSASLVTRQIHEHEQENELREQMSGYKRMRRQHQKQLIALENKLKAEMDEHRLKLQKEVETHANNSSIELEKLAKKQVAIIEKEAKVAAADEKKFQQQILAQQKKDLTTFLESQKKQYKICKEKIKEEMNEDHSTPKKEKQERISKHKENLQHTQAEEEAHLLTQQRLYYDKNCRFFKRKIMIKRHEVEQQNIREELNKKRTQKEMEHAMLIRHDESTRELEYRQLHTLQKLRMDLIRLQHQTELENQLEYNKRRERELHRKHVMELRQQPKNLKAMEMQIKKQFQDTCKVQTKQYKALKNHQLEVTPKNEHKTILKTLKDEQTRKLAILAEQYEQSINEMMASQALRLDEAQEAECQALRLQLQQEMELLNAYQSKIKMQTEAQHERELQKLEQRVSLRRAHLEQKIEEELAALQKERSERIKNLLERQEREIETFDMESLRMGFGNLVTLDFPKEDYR

Chain of Serine/threonine-protein kinase WNK1 (Homo sapiens) (Q9H4A3 whole entry, looked up): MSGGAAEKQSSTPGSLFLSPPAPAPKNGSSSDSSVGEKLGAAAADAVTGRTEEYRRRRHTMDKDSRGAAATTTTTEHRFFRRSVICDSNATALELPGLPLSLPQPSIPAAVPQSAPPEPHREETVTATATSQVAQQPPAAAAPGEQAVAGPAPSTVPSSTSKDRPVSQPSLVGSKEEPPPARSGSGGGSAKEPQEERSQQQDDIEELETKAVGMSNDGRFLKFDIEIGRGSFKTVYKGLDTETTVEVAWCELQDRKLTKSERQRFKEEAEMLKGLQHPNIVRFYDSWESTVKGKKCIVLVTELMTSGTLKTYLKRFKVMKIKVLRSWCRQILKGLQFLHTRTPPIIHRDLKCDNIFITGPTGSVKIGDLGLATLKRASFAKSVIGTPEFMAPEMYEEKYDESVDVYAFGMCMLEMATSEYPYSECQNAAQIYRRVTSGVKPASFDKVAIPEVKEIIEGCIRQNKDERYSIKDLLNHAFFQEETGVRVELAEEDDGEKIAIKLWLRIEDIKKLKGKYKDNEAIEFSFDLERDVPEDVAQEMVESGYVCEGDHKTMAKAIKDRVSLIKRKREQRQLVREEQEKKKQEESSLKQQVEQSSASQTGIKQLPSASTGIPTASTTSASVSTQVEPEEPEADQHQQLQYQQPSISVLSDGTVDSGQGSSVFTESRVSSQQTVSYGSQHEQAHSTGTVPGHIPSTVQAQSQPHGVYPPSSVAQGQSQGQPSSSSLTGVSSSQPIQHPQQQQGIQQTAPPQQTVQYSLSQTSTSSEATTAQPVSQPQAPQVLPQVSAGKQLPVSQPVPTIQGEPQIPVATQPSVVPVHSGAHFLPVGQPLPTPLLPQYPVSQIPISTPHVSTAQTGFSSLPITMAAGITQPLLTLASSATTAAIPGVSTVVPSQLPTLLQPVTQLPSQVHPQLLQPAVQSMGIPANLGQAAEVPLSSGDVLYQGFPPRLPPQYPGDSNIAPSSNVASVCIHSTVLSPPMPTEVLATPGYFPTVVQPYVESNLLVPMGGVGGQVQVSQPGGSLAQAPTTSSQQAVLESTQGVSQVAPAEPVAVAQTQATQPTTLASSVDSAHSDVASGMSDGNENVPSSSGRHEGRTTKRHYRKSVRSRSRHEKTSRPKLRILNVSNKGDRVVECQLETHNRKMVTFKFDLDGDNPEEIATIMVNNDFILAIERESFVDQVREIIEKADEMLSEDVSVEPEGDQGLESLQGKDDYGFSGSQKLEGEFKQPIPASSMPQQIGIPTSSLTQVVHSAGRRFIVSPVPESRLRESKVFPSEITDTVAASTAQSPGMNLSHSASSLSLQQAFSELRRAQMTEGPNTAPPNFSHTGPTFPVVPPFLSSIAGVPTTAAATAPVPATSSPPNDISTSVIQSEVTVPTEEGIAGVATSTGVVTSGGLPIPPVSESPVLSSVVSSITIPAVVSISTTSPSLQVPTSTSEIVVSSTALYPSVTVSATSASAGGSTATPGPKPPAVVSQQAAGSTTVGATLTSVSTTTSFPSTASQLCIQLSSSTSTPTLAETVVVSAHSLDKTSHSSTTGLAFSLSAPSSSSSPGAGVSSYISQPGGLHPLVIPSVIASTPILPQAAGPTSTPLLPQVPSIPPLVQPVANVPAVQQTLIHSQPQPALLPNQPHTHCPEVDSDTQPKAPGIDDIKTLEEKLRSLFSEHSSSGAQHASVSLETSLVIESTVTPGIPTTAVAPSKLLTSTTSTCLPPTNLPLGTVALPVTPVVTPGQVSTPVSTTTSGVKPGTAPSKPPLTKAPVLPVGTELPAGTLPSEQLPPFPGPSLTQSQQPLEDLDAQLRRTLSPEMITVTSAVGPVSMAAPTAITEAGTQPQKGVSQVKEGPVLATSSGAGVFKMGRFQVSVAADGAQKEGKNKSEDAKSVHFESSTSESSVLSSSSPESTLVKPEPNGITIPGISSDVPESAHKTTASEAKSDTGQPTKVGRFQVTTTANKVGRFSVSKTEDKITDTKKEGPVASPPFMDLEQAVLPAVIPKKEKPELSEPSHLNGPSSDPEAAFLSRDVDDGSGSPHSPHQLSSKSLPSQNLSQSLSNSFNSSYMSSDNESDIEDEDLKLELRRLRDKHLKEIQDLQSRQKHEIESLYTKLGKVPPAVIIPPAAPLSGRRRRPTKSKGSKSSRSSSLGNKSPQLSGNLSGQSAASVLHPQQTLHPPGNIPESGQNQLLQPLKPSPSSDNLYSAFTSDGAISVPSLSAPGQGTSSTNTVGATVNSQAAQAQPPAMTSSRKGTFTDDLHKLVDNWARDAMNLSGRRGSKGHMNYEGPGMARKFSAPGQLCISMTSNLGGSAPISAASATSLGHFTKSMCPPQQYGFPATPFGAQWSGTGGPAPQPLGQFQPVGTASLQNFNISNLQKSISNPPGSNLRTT
Chain of Serine/threonine-protein kinase PAK 6 (Homo sapiens) (Q9NQU5 whole entry, looked up): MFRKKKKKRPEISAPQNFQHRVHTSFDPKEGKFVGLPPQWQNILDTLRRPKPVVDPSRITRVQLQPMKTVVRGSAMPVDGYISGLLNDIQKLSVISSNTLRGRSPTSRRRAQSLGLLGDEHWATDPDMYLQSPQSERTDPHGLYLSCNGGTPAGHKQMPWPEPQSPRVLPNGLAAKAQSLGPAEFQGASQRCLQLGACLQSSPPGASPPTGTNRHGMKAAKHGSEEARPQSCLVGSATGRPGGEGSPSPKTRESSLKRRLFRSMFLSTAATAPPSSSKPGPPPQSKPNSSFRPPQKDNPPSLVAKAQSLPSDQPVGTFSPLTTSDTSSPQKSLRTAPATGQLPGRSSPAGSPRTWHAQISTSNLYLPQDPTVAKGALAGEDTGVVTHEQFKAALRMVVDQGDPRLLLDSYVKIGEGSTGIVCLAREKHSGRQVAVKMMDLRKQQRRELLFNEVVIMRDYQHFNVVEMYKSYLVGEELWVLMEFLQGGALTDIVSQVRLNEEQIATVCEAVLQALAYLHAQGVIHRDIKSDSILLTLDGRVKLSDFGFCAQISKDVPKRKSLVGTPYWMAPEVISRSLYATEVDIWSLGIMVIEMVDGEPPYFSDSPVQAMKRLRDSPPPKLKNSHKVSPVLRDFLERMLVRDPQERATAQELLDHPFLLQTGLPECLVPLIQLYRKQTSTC
Chain of Myosin light chain kinase, smooth muscle (Q15746 whole entry): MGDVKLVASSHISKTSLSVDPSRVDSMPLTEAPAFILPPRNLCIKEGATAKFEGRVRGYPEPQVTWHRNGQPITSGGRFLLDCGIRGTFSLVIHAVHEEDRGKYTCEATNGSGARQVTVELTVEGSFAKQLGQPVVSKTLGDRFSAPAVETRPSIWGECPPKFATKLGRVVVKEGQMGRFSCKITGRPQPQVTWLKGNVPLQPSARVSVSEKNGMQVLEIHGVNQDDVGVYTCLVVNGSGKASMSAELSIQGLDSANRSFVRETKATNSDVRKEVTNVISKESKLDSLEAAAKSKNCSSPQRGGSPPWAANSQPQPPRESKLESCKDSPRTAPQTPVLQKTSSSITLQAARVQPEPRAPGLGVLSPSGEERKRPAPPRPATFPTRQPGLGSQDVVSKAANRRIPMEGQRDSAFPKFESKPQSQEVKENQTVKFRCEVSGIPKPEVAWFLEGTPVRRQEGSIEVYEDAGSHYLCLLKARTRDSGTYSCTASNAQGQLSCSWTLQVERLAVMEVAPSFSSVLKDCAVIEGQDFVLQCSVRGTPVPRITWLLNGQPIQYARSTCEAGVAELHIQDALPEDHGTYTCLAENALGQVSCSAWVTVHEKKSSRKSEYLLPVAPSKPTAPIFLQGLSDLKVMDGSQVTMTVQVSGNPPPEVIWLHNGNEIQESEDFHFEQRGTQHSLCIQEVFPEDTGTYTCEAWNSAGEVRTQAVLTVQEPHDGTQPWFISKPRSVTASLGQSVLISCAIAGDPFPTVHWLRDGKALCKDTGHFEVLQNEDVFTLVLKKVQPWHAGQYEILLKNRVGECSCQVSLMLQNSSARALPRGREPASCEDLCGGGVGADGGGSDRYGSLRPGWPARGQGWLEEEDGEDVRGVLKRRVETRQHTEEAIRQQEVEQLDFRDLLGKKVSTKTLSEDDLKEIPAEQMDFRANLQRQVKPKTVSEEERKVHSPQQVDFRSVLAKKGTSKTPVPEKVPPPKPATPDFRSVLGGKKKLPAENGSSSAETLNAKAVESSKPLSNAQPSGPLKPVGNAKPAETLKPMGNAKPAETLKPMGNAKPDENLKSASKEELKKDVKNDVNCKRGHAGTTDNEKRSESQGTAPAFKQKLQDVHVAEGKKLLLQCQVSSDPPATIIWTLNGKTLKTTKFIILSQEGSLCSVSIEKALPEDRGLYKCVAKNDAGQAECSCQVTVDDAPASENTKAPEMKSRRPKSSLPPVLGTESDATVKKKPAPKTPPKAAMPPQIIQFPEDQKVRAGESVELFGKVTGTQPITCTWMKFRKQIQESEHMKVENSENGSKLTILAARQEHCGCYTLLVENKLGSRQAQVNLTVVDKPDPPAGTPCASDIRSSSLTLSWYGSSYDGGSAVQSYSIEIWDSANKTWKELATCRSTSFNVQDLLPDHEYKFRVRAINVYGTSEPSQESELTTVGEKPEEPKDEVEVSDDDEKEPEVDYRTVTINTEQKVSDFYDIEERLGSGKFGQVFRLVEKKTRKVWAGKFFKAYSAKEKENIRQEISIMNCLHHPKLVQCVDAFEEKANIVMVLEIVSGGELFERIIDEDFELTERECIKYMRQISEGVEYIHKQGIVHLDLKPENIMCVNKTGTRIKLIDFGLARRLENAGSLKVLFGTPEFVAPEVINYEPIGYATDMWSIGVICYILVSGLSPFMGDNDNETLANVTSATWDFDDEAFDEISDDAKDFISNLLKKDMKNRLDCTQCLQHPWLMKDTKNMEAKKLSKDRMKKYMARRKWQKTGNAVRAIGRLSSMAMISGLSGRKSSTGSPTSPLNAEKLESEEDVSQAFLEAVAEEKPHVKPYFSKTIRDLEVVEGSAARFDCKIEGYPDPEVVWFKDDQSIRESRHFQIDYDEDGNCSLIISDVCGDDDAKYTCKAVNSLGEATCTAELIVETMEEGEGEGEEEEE

% of control [1]: -5.74%
SMILES: Cn1cc(-n2cnc3c(NCc4nc5cc(Cl)c(Cl)cc5[nH]4)nc(N4CCOCC4)nc32)cn1

SMILES: O=C(NOC[C@H](O)CO)c1ccc(F)c(F)c1Nc1ccc(I)cc1F
% of control [2]: 96%
% of control [3]: 100%

SMILES: CNC(=O)Nc1ccc(-c2nc(N3CC4CCC(C3)O4)c3cnn(C4CCC5(CC4)OCCO5)c3n2)cc1
% of control [4]: 100%

% of inhibition [5]: 4.1%
% of inhibition [6]: 10.3%
SMILES: CC[C@@H]1[C@H](F)C(=O)N[C@@H]1COc1nccc2cc(C(N)=O)c(OC)cc12 [ZIMLOVISERTIB]

SMILES: COCC(=O)NC/C=C/c1ccc2ncnc(Nc3ccc(Oc4ccc(C)nc4)c(C)c3)c2c1 [CP-724714]
% of control [7]: 90%

SMILES: CCC(=O)N1CCN(c2ccc(-n3c(=O)ccc4cnc5ccc(-c6cnc7ccccc7c6)cc5c43)cc2C(F)(F)F)CC1
% of control [8]: 3.4%

SMILES: O[C@H]1CC[C@H](Nc2ncc3nc(Nc4c(F)cc(F)cc4F)n([C@H]4CCOC4)c3n2)CC1
% of control [9]: 100%

SMILES: N#Cc1cccc(-c2c[nH]c3ncnc(N4CCOCC4)c23)c1
% of inhibition (Activated CDC42 kinase 1): 8%
% of inhibition [10]: -1%
% of inhibition [11]: 6%
